Data published in publication PMC7841342, “Elevated ABCB1 Expression Confers Acquired Resistance to Aurora Kinase Inhibitor GSK-1070916 in Cancer Cells” (Frontiers in Pharmacology, 2021).

Molecular target: ABCB1 (Homo sapiens, UniProt P08183)
Assay: biochemical

Chain of ABCB1 (P08183 whole entry): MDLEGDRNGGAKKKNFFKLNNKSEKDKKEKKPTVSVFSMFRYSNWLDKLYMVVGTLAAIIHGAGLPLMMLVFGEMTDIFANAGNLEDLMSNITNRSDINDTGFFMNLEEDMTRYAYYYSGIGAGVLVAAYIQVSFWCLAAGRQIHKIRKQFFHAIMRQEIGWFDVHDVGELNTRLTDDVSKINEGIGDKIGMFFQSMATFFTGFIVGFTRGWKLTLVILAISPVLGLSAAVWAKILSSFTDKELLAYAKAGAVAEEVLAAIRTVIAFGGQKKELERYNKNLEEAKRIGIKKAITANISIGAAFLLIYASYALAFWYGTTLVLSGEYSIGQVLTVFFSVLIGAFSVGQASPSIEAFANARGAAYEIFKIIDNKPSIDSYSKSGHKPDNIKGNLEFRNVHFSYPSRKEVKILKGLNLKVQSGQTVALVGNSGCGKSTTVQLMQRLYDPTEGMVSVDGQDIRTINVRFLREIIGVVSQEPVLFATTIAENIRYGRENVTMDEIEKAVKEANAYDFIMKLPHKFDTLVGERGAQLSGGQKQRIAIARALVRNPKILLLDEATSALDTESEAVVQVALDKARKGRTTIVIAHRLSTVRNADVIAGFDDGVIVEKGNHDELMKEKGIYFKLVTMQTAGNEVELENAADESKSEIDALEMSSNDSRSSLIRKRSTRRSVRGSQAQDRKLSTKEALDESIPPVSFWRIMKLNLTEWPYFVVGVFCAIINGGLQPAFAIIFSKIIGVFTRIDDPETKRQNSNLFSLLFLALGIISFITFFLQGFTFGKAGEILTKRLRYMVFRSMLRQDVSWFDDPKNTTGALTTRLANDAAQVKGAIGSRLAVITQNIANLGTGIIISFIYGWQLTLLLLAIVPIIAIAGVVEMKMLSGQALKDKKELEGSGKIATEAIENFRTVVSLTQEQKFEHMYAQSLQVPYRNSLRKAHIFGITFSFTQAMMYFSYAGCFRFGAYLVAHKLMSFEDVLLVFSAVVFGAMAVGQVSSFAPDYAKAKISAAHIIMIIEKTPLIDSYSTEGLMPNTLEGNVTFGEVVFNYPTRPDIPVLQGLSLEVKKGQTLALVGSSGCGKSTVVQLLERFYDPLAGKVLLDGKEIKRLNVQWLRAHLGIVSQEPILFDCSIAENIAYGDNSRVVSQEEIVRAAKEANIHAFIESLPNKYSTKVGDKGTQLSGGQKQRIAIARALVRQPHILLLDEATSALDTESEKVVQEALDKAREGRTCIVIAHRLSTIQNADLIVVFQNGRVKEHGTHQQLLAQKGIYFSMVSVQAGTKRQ

EC50: 830 nM
Structure (SMILES): CCn1cc(-c2ccnc3[nH]c(-c4cccc(CN(C)C)c4)cc23)c(-c2ccc(NC(=O)N(C)C)cc2)n1 [GSK-1070916]
